Tested on: primary mouse hepatocytes
Assay: Gene expression in primary mouse hepatocytes, GTX vs non-GTX (four-gene classifier, 24 h)
Procedure: Hepatocyte cells were incubated and exposed to a compound for 24 h before being harvested for RNA isolation.
The results of the gene expression analysis may then be fed into a statistical software package such as R, Splus, or Microsoft Excel. […] If none or only one of these criteria were met, no point was scored.
For each of the four genes mentioned in the table (1700007K13RIK, GAS2L3, SPC25, DDIT4L), a statistical comparison was made between the normalized expression data for these genes. […] If none or only one of these criteria were met, no point was scored.
For each compound, the sum of the scores for four genes is taken. If this score is 0, a compound can be believed not to be genotoxic. If this score is 1, 2, 3 or 4, a compound is genotoxic.
If none or only one of these criteria were met, no point was scored.

[1] = 24 h exposure, average of four replicates
[2] = log 2 ratio, 24 h exposure, concentration per Table 4

score 1700007K13RIK [1]: 0 | score DDIT4L [1]: 0 | score GAS2L3 [1]: 0 | score SPC25 [1]: 0
Compound: OC[C@@H](O)[C@@H](O)[C@H](O)[C@H](O)CO [dMan, D-Mannitol]
Ratios of gene expression treated/untreated 1700007K13RIK [2]: 0.02382 | Ratios of gene expression treated/untreated DDIT4L [2]: 0.03421 | Ratios of gene expression treated/untreated GAS2L3 [2]: −0.2175 | Ratios of gene expression treated/untreated SPC25 [2]: −0.0363 | Total score (sum of scores for four genes, 0 = not genotoxic, 1, 2, 3 or 4 = genotoxic): 0

From patent US20120122727A1, “IN VITRO METHOD FOR PREDICTING WHETHER A COMPOUND IS GENOTOXIC IN VIVO” (priority 2009, published 2012)
